Reference: the supplement of paper PMC10883282

Legend:
Assay in all cases: relative viability vs DMSO control (72 h) (fraction); higher = more viable cells
A204 = test system: A204
Procedure, shortened: (§1)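 A 5 µM positive control and 0.1% DMSO vehicle ran alongside sarcoma cell lines seeded in 384-well plates to reach 80–90% confluence. Serially diluted compound, 2.5 µl from source plates of 10 mM to 0.0002 mM, was added after 24 h, and the plates were held 72 h at 37 °C, 5% CO2. Relative viability was worked out from ATPLite readings as percent growth averaged over up to triplicate wells. The values were rescaled so that 1 is full and 0 is none.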

G401 = test system: G401
Procedure, shortened: as §1

HS729 = test system: HS729
Procedure, shortened: as §1

HT1080 = test system: HT1080
Procedure, shortened: as §1

KHOS-NP = test system: KHOS-NP
Procedure, shortened: as §1

MES-SA = test system: MES-SA
Procedure, shortened: as §1

SK-LMS-1 = test system: SK-LMS-1
Procedure, shortened: as §1

SW1353 = test system: SW1353
Procedure, shortened: as §1

SW684 = test system: SW684
Procedure, shortened: as §1

SW872 = test system: SW872
Procedure, shortened: as §1

SYO-1 = test system: SYO-1
Procedure, shortened: as §1

VA-ES-BJ = test system: VA-ES-BJ
Procedure, shortened: as §1

C[C@H]1Oc2cc(cnc2N)-c2c(nn(C)c2C#N)CN(C)C(=O)c2ccc(F)cc21 [Lorlatinib]
Conditions	relative viability
A204, 0.00017 µM	1.08
A204, 0.00051 µM	1.11
A204, 0.00152 µM	1.1
A204, 0.00457 µM	1.13
A204, 0.01372 µM	1.1
A204, 0.04115 µM	1.07
A204, 0.1235 µM	1.05
A204, 0.3704 µM	1.05
A204, 1.111 µM	1.01
A204, 3.333 µM	0.981
A204, 10 µM	0.988
G401, 0.00017 µM	1.05
G401, 0.00051 µM	1.05
G401, 0.00152 µM	1.04
G401, 0.00457 µM	1.03
G401, 0.01372 µM	1.06
G401, 0.04115 µM	1.02
G401, 0.1235 µM	0.968
G401, 0.3704 µM	0.984
G401, 1.111 µM	1
G401, 3.333 µM	1.01
G401, 10 µM	0.916
HS729, 0.00017 µM	1.06
HS729, 0.00051 µM	0.956
HS729, 0.00152 µM	0.897
HS729, 0.00457 µM	0.958
HS729, 0.01372 µM	0.878
HS729, 0.04115 µM	0.886
HS729, 0.1235 µM	0.829
HS729, 0.3704 µM	0.899
HS729, 1.111 µM	0.803
HS729, 3.333 µM	0.781
HS729, 10 µM	0.662
HT1080, 0.00017 µM	1.09
HT1080, 0.00051 µM	1.08
HT1080, 0.00152 µM	1.09
HT1080, 0.00457 µM	1.1
HT1080, 0.01372 µM	1.08
HT1080, 0.04115 µM	1.03
HT1080, 0.1235 µM	1.07
HT1080, 0.3704 µM	1.09
HT1080, 1.111 µM	1.03
HT1080, 3.333 µM	1.09
HT1080, 10 µM	1.05
KHOS-NP, 0.00017 µM	1.09
KHOS-NP, 0.00051 µM	1.091
KHOS-NP, 0.00152 µM	1.09
KHOS-NP, 0.00457 µM	1.07
KHOS-NP, 0.01372 µM	1.07
KHOS-NP, 0.04115 µM	1.06
KHOS-NP, 0.1235 µM	1.02
KHOS-NP, 0.3704 µM	1.07
KHOS-NP, 1.111 µM	0.999
KHOS-NP, 3.333 µM	1.02
KHOS-NP, 10 µM	0.954
MES-SA, 0.00017 µM	0.955
MES-SA, 0.00051 µM	0.987
MES-SA, 0.00152 µM	0.943
MES-SA, 0.00457 µM	0.929
MES-SA, 0.01372 µM	0.922
MES-SA, 0.04115 µM	0.923
MES-SA, 0.1235 µM	0.911
MES-SA, 0.3704 µM	0.919
MES-SA, 1.111 µM	0.897
MES-SA, 3.333 µM	0.892
MES-SA, 10 µM	0.879
SK-LMS-1, 0.00017 µM	1.12
SK-LMS-1, 0.00051 µM	1.095
SK-LMS-1, 0.00152 µM	1.081
SK-LMS-1, 0.00457 µM	1.09
SK-LMS-1, 0.01372 µM	1.1
SK-LMS-1, 0.04115 µM	1.09
SK-LMS-1, 0.1235 µM	1.07
SK-LMS-1, 0.3704 µM	1.02
SK-LMS-1, 1.111 µM	1.02
SK-LMS-1, 3.333 µM	1
SK-LMS-1, 10 µM	0.933
SW684, 0.00017 µM	1.13
SW684, 0.00051 µM	1.2
SW684, 0.00152 µM	1.17
SW684, 0.00457 µM	1.17
SW684, 0.01372 µM	1.17
SW684, 0.04115 µM	1.185
SW684, 0.1235 µM	1.15
SW684, 0.3704 µM	1.09
SW684, 1.111 µM	1.14
SW684, 3.333 µM	1.12
SW684, 10 µM	1.12
SW872, 0.00017 µM	1.08
SW872, 0.00051 µM	1.05
SW872, 0.00152 µM	1.04
SW872, 0.00457 µM	1.04
SW872, 0.01372 µM	1
SW872, 0.04115 µM	0.956
SW872, 0.1235 µM	0.921
SW872, 0.3704 µM	0.838
SW872, 1.111 µM	0.798
SW872, 3.333 µM	0.718
SW872, 10 µM	0.658
SW1353, 0.00017 µM	1.04
SW1353, 0.00051 µM	1.06
SW1353, 0.00152 µM	1.027
SW1353, 0.00457 µM	0.992
SW1353, 0.01372 µM	0.985
SW1353, 0.04115 µM	1
SW1353, 0.1235 µM	0.976
SW1353, 0.3704 µM	0.889
SW1353, 1.111 µM	0.851
SW1353, 3.333 µM	0.839
SW1353, 10 µM	0.792
SYO-1, 0.00017 µM	0.99
SYO-1, 0.00051 µM	0.982
SYO-1, 0.00152 µM	0.985
SYO-1, 0.00457 µM	0.966
SYO-1, 0.01372 µM	0.966
SYO-1, 0.04115 µM	0.921
SYO-1, 0.1235 µM	0.873
SYO-1, 0.3704 µM	0.844
SYO-1, 1.111 µM	0.768
SYO-1, 3.333 µM	0.737
SYO-1, 10 µM	0.66
VA-ES-BJ, 0.00017 µM	1.056
VA-ES-BJ, 0.00051 µM	1.08
VA-ES-BJ, 0.00152 µM	1.05
VA-ES-BJ, 0.00457 µM	1.03
VA-ES-BJ, 0.01372 µM	1.02
VA-ES-BJ, 0.04115 µM	0.989
VA-ES-BJ, 0.1235 µM	0.989
VA-ES-BJ, 0.3704 µM	0.956
VA-ES-BJ, 1.111 µM	0.966
VA-ES-BJ, 3.333 µM	0.955
VA-ES-BJ, 10 µM	0.87

C#Cc1cccc(Nc2ncnc3cc(OCCOC)c(OCCOC)cc23)c1 [Erlotinib]
Conditions	relative viability
A204, 0.00017 µM	1.06
A204, 0.00051 µM	1.13
A204, 0.00152 µM	1.09
A204, 0.00457 µM	1.09
A204, 0.01372 µM	1.07
A204, 0.04115 µM	1.1
A204, 0.1235 µM	1.09
A204, 0.3704 µM	1.09
A204, 1.111 µM	1.01
A204, 3.333 µM	0.822
A204, 10 µM	0.546
G401, 0.00017 µM	1.04
G401, 0.00051 µM	1.05
G401, 0.00152 µM	1.02
G401, 0.00457 µM	1.04
G401, 0.01372 µM	1.01
G401, 0.04115 µM	1.03
G401, 0.1235 µM	1.018
G401, 0.3704 µM	1.05
G401, 1.111 µM	1.016
G401, 3.333 µM	0.9684
G401, 10 µM	0.787
HS729, 0.00017 µM	1.03
HS729, 0.00051 µM	0.978
HS729, 0.00152 µM	0.976
HS729, 0.00457 µM	0.961
HS729, 0.01372 µM	1.01
HS729, 0.04115 µM	1
HS729, 0.1235 µM	0.995
HS729, 0.3704 µM	1.01
HS729, 1.111 µM	0.92
HS729, 3.333 µM	0.781
HS729, 10 µM	0.714
HT1080, 0.00017 µM	1.09
HT1080, 0.00051 µM	1.1
HT1080, 0.00152 µM	1.09
HT1080, 0.00457 µM	1.08
HT1080, 0.01372 µM	1.09
HT1080, 0.04115 µM	1.12
HT1080, 0.1235 µM	1.11
HT1080, 0.3704 µM	1.097
HT1080, 1.111 µM	1.1
HT1080, 3.333 µM	1.16
HT1080, 10 µM	0.942
KHOS-NP, 0.00017 µM	1.11
KHOS-NP, 0.00051 µM	1.092
KHOS-NP, 0.00152 µM	1.11
KHOS-NP, 0.00457 µM	1.11
KHOS-NP, 0.01372 µM	1.11
KHOS-NP, 0.04115 µM	1.1
KHOS-NP, 0.1235 µM	1.095
KHOS-NP, 0.3704 µM	1.1
KHOS-NP, 1.111 µM	1.1
KHOS-NP, 3.333 µM	1.086
KHOS-NP, 10 µM	1.04
MES-SA, 0.00017 µM	0.95
MES-SA, 0.00051 µM	0.973
MES-SA, 0.00152 µM	0.979
MES-SA, 0.00457 µM	0.945
MES-SA, 0.01372 µM	0.96
MES-SA, 0.04115 µM	0.972
MES-SA, 0.1235 µM	0.959
MES-SA, 0.3704 µM	0.948
MES-SA, 1.111 µM	0.914
MES-SA, 3.333 µM	0.687
MES-SA, 10 µM	0.458
SK-LMS-1, 0.00017 µM	1.06
SK-LMS-1, 0.00051 µM	1.06
SK-LMS-1, 0.00152 µM	1.09
SK-LMS-1, 0.00457 µM	1.07
SK-LMS-1, 0.01372 µM	1.09
SK-LMS-1, 0.04115 µM	1.12
SK-LMS-1, 0.1235 µM	1.07
SK-LMS-1, 0.3704 µM	1.11
SK-LMS-1, 1.111 µM	1.07
SK-LMS-1, 3.333 µM	0.941
SK-LMS-1, 10 µM	0.698
SW684, 0.00017 µM	1.16
SW684, 0.00051 µM	1.15
SW684, 0.00152 µM	1.14
SW684, 0.00457 µM	1.23
SW684, 0.01372 µM	1.23
SW684, 0.04115 µM	1.19
SW684, 0.1235 µM	1.17
SW684, 0.3704 µM	1.19
SW684, 1.111 µM	1.2
SW684, 3.333 µM	1.18
SW684, 10 µM	1.05
SW872, 0.00017 µM	1.11
SW872, 0.00051 µM	1.12
SW872, 0.00152 µM	1.14
SW872, 0.00457 µM	1.11
SW872, 0.01372 µM	1.07
SW872, 0.04115 µM	1.1
SW872, 0.1235 µM	1.11
SW872, 0.3704 µM	1.06
SW872, 1.111 µM	1.04
SW872, 3.333 µM	0.822
SW872, 10 µM	0.638
SW1353, 0.00017 µM	1.02
SW1353, 0.00051 µM	1.03
SW1353, 0.00152 µM	1.043
SW1353, 0.00457 µM	1.02
SW1353, 0.01372 µM	1.04
SW1353, 0.04115 µM	1.01
SW1353, 0.1235 µM	0.955
SW1353, 0.3704 µM	0.928
SW1353, 1.111 µM	0.889
SW1353, 3.333 µM	0.812
SW1353, 10 µM	0.695
SYO-1, 0.00017 µM	0.999
SYO-1, 0.00051 µM	0.998
SYO-1, 0.00152 µM	0.978
SYO-1, 0.00457 µM	0.979
SYO-1, 0.01372 µM	0.982
SYO-1, 0.04115 µM	0.9892
SYO-1, 0.1235 µM	0.967
SYO-1, 0.3704 µM	0.991
SYO-1, 1.111 µM	0.962
SYO-1, 3.333 µM	0.92
SYO-1, 10 µM	0.724
VA-ES-BJ, 0.00017 µM	1.088
VA-ES-BJ, 0.00051 µM	1.08
VA-ES-BJ, 0.00152 µM	1.08
VA-ES-BJ, 0.00457 µM	1.08
VA-ES-BJ, 0.01372 µM	1.06
VA-ES-BJ, 0.04115 µM	1.08
VA-ES-BJ, 0.1235 µM	1.09
VA-ES-BJ, 0.3704 µM	1.03
VA-ES-BJ, 1.111 µM	1.01
VA-ES-BJ, 3.333 µM	0.888
VA-ES-BJ, 10 µM	0.642
